Measurements as given in patent US6616925B1, “Combined preparation for the treatment of neoplasic diseases or of infectious diseases” (I.D.M. Immuno-Designed Molecules, priority 1998, dated 2003).

Columns and labels:
[1] = tested on: human carcinoma solid tumors; assay: nude mice inoculated with human carcinoma solid tumors, subcutaneous tumor size; format: in vivo; settings: after macrophage treatment; drugs used alone or in combination
Excerpt: 2) Nude mice inoculated with human carcinoma solid tumors are, initially treated with cytotoxic drugs (Adriamycin, Etretinate, Taxotere), used alone or in combination.

solid carcinoma = assay: C57B16 mice bearing solid carcinoma, apoptosis-inducing drug then monocyte derived cells; format: in vivo; settings: drug intraperitonealy, after 24 h 0.1 million monocyte derived cells in tumor periphery; observed only after combined treatment
Method: 7) C57B16 mice bearing solid carcinoma are injected intraperitonealy with a drug inducing apoptosis (1 mg mitomycin C or 0.1 mg sodium butyrate). After 24 h, mice are injected with 0.1 million monocyte derived cells in tumor periphery. […] In another protocol, carcinoma cells are treated in vitro with 0.01 mM sodium butyrate, and then submitted to phagocytosis by murine monocyte derived cells.

Compound	antitumoral effect of second treatment with the same cytotoxic drugs (subcutaneous tumor size) [1]	tumor outcome after combined treatment (solid carcinoma)
COc1cccc2c1C(=O)c1c(O)c3c(c(O)c1C2=O)C[C@@](O)(C(=O)CO)C[C@@H]3O[C@H]1C[C@H](N)[C@H](O)[C@H](C)O1 [Adriamycin]	further antitumoral effect	
CCOC(=O)/C=C(C)/C=C/C=C(C)/C=C/c1c(C)cc(OC)c(C)c1C [Etretinate]	further antitumoral effect	
CC(=O)O[C@@]12CO[C@@H]1C[C@H](O)[C@@]1(C)C(=O)[C@H](O)C3=C(C)[C@@H](OC(=O)[C@H](O)[C@@H](NC(=O)OC(C)(C)C)c4ccccc4)C[C@@](O)([C@@H](OC(=O)c4ccccc4)[C@H]21)C3(C)C [Taxotere]	further antitumoral effect	
CO[C@@]12[C@H](COC(N)=O)C3=C(C(=O)C(C)=C(N)C3=O)N1C[C@@H]1N[C@@H]12 [mitomycin C]		Tumor regression and protection against further tumor challenge
CCCC(=O)[O-].[Na+] [sodium butyrate]		Tumor regression and protection against further tumor challenge
